Measurements: the CheMixHub ionic liquid set
Several values for one entry are separate records, joined by “and”; a condition that tells them apart may be missing. Equal entries are not always repeated.

Experiment: xn = mol fraction of the nth substance listed

CCCC[n+]1ccc(C)cc1.F[B-](F)(F)F + O
298.15 K, 101 kPa
Settings | electrical conductivity [S/m]
x1 = 0.0002198 | 0.131
x1 = 0.0004197 | 0.206
x1 = 0.0007725 | 0.357
x1 = 0.001123 | 0.486
x1 = 0.001267 | 0.554
x1 = 0.001481 | 0.638
x1 = 0.00182 | 0.757
x1 = 0.00217 | 0.871
x1 = 0.002506 | 0.979
x1 = 0.002721 | 1.01
x1 = 0.002887 | 1.07
x1 = 0.003188 | 1.19
x1 = 0.003487 | 1.27
x1 = 0.003843 | 1.36
x1 = 0.004144 | 1.44
x1 = 0.004481 | 1.52

CCCC[n+]1ccccc1.N#C[N-]C#N + O
100 kPa
Settings | electrical conductivity [S/m] | viscosity [mPa·s]
298.15 K, x1 = 0.9563 | – | 30.06
298.15 K, x1 = 0.9642 | 0.931 | –
303.15 K, x1 = 0.9189 | 1.17 | –
303.15 K, x1 = 0.9338 | 1.14 | –
303.15 K, x1 = 0.9488 | 1.12 | –
303.15 K, x1 = 0.9563 | – | 24.67
313.15 K, x1 = 0.926 | – | 16.69
313.15 K, x1 = 0.9563 | – | 17.57
313.15 K, x1 = 0.9642 | 1.54 | –
318.15 K, x1 = 0.926 | – | 14.38
318.15 K, x1 = 0.9338 | 1.89 | –
318.15 K, x1 = 0.9722 | – | 15.54
323.15 K, x1 = 0.9563 | – | 12.69
323.15 K, x2 = 0.01155 | – | 13.56
328.15 K, x1 = 0.926 | – | 10.62
328.15 K, x1 = 0.9412 | – | 10.83
333.15 K, x1 = 0.9488 | 2.75 | –
333.15 K, x1 = 0.9563 | – | 9.77
333.15 K, x1 = 0.9642 | 2.7 | –
338.15 K, x1 = 0.9412 | – | 8.47

CCOCn1cc[n+](C)c1.O=S(=O)([N-]S(=O)(=O)C(F)(F)F)C(F)(F)F + O
Settings | viscosity [mPa·s]
333 K, 101 kPa, x1 = 0.8415 | 11.7

CC[NH3+].O=[N+]([O-])[O-] + O
Settings | viscosity
288.15 K, 101.33 kPa, x2 = 0.574 | 5.43 mPa·s and 7.928 mPa·s
293.15 K, 100 kPa, x2 = 0.1088 | 20.97 mPa·s
293.15 K, 100 kPa, x2 = 0.3682 | 7.63 mPa·s
293.15 K, 100 kPa, x2 = 0.47 | 6.34 mPa·s
293.15 K, 100 kPa, x2 = 0.579 | 5.03 mPa·s
293.15 K, 101.33 kPa, x2 = 0.574 | 4.86 mPa·s and 7.175 mPa·s
298 K, 101 kPa, x2 = 0.7 | 3.42 mPa·s
298 K, 101 kPa, x2 = 0.95 | 1.15 mPa·s
298.15 K, 100 kPa, x2 = 0.7889 | 2.16 mPa·s
298.15 K, 100 kPa, x2 = 0.8895 | 1.48 mPa·s
298.15 K, 101.33 kPa, x2 = 0.574 | 4.415 mPa·s and 6.559 mPa·s
303.15 K, 100 kPa, x2 = 0.1088 | 15.74 mPa·s
303.15 K, 100 kPa, x2 = 0.2597 | 7.78 mPa·s
303.15 K, 100 kPa, x2 = 0.7889 | 1.95 mPa·s
303.15 K, 100 kPa, x2 = 0.8895 | 1.34 mPa·s
303.15 K, 101.33 kPa, x2 = 0.574 | 3.953 mPa·s and 5.989 mPa·s
308.15 K, 100 kPa, x2 = 0.1088 | 13.76 mPa·s
308.15 K, 100 kPa, x2 = 0.47 | 4.52 mPa·s
308.15 K, 101.33 kPa, x2 = 0.574 | 3.571 mPa·s and 5.567 mPa·s
313.15 K, 100 kPa, x2 = 0 | 22.67 mPa·s
313.15 K, 100 kPa, x2 = 0.579 | 3.26 mPa·s
313.15 K, 101.33 kPa, x2 = 0.574 | 3.247 mPa·s and 5.268 mPa·s
318.15 K, 100 kPa, x2 = 0.47 | 3.71 mPa·s
318.15 K, 100 kPa, x2 = 0.7889 | 1.49 mPa·s
318.15 K, 101.33 kPa, x2 = 0.574 | 2.96 mPa·s and 4.826 mPa·s
323.15 K, 101.33 kPa, x2 = 0.574 | 2.709 mPa·s and 4.535 mPa·s
328.15 K, 101.33 kPa, x2 = 0.574 | 2.479 mPa·s and 4.213 mPa·s
333.15 K, 101.33 kPa, x2 = 0.574 | 2.281 mPa·s and 4.065 mPa·s
338.15 K, 101.33 kPa, x2 = 0.574 | 2.102 mPa·s and 3.912 mPa·s
343.15 K, 101.33 kPa, x2 = 0.574 | 1.945 mPa·s

CCn1cc[n+](C)c1.N[C@@H](CO)C(=O)[O-] + O
100 kPa
Settings | electrical conductivity [S/m]
303.15 K, x1 = 0.9276 | 0.0944
308.15 K, x1 = 0.9133 | 0.132
313.15 K, x1 = 0.9133 | 0.169
313.15 K, x1 = 0.9276 | 0.166
318.15 K, x1 = 0.8699 | 0.223
318.15 K, x1 = 0.884 | 0.221
323.15 K, x1 = 0.9133 | 0.269
328.15 K, x1 = 0.884 | 0.346
333.15 K, x1 = 0.8699 | 0.436
333.15 K, x1 = 0.884 | 0.432
338.15 K, x1 = 0.9276 | 0.511

C[N+](C)(C)CCO.O=C([O-])CO + O
Settings | viscosity [mPa·s]
293.15 K, 101 kPa, x2 = 0.366 | 660
